Some test systems named below: NCI-H23 lung; UACC-257 melanoma; M14 melanoma; NCI-H522 lung; MOLT-4 leukemia; IGROV1 ovarian; SK-OV-3 ovarian; SNB-19 CNS; DU-145 prostate; ACHN renal.
Holding throughout (test): growth of human tumour cells (NCI), 48 h

“And” between values parts separate entries of the source, which are not always exact repeats. Equal values may be shown once.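 1) Cells in 96-well plates. 2) Compound, 48 h, 5 concentrations. 3) Linear interpolation between surrounding doses. 4) Unreached endpoint = highest concentration. The concentration for 50% growth inhibition is given as GI50. TGI: concentration producing complete growth inhibition.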 Some results are limits rather than exact numbers.

With `COC(=O)c1cc2c(s1)-c1nccc3c1c(nc1ccccc13)C2=O`, the GI50 in the experiment on NCI-H23 lung was over 100 µM; in the experiment with UACC-257 melanoma it was 32 µM; in the experiment on M14 melanoma, 97.7 µM; in the experiment on NCI-H522 lung, 35 µM; in the experiment on MOLT-4 leukemia, over 100000 nM; in the experiment on IGROV1 ovarian, 28.8 µM. Further, the GI50 in the experiment on SK-OV-3 ovarian, in the experiment on SNB-19 CNS, with DU-145 prostate and in the experiment with ACHN renal was over 100 µM throughout. Also, the TGI in the experiment on NCI-H23 lung, with UACC-257 melanoma, with M14 melanoma, with NCI-H522 lung, with MOLT-4 leukemia and with IGROV1 ovarian was over 100 µM throughout. The TGI in the experiment on SK-OV-3 ovarian, in the experiment with SNB-19 CNS, in the experiment with DU-145 prostate and with ACHN renal was over 100 µM throughout.

As to `CCc1c(Cl)c(C)cc(O)c1Cl`, the TGI was over 100 µM in the experiment on NCI-H23 lung; 99.7 µM with UACC-257 melanoma; 92.5 µM in the experiment on M14 melanoma; over 100 µM with NCI-H522 lung; 95.2 µM in the experiment with MOLT-4 leukemia; over 100 µM in the experiment with IGROV1 ovarian. Moreover, the TGI with SK-OV-3 ovarian is over 100 µM; with SNB-19 CNS, over 100 µM; with DU-145 prostate, over 100 µM; in the experiment on ACHN renal, 60.6 µM.

Regarding `Cn1c(=O)c(Oc2ccc(F)cc2)cc2cnc(NC3CCOCC3)nc21`, the GI50 is over 25 µM with NCI-H23 lung; over 25 µM in the experiment on UACC-257 melanoma; over 25 µM in the experiment on M14 melanoma; over 25 µM with NCI-H522 lung; over 25000 nM in the experiment with MOLT-4 leukemia; over 25 µM in the experiment on IGROV1 ovarian. The GI50 with SK-OV-3 ovarian, in the experiment on SNB-19 CNS, in the experiment on DU-145 prostate and in the experiment with ACHN renal was over 25 µM each time. Also, the TGI in the experiment on NCI-H23 lung, in the experiment on UACC-257 melanoma, in the experiment on M14 melanoma, in the experiment with NCI-H522 lung, in the experiment on MOLT-4 leukemia and in the experiment on IGROV1 ovarian was over 25 µM throughout. For the same molecule, the TGI in the experiment with SK-OV-3 ovarian, in the experiment on SNB-19 CNS, with DU-145 prostate and in the experiment on ACHN renal was over 25 µM each time.

For `COc1ccc(Cn2c(N)c(S(=O)(=O)c3ccc(Cl)cc3)c3nc(C#N)c(C#N)nc32)cc1`, the GI50 in the experiment on NCI-H23 lung is 17 µM; in the experiment with UACC-257 melanoma, over 50 µM; with M14 melanoma, 24.8 µM; in the experiment on NCI-H522 lung, 5.82 µM; in the experiment with IGROV1 ovarian it was 21.6 µM; in the experiment with SK-OV-3 ovarian, 10.8 µM. In addition, the results for the GI50 with SNB-19 CNS, in the experiment with DU-145 prostate and in the experiment with ACHN renal were 18 µM, 20.2 µM and 6.22 µM, respectively. The TGI with NCI-H23 lung is over 50 µM; with UACC-257 melanoma it was over 50 µM; in the experiment with M14 melanoma it was over 50 µM; in the experiment with NCI-H522 lung it was over 50 µM; in the experiment on IGROV1 ovarian it was over 50 µM; in the experiment with SK-OV-3 ovarian, 49.4 µM. Also, the TGI in the experiment on SNB-19 CNS, in the experiment on DU-145 prostate and in the experiment with ACHN renal was over 50 µM each time.

Turning to `O=C(CNS(=O)(=O)Cc1ccccc1)NNc1ccccc1`, the TGI in the experiment with NCI-H23 lung, with UACC-257 melanoma, in the experiment with M14 melanoma, in the experiment with NCI-H522 lung, in the experiment on MOLT-4 leukemia and in the experiment on IGROV1 ovarian was over 100 µM throughout. The TGI in the experiment on SK-OV-3 ovarian, in the experiment on SNB-19 CNS, in the experiment with DU-145 prostate and with ACHN renal was over 100 µM in each case.

For `Nc1ccn(C2OC(CO)C(O)C2O)c(=O)n1` (stereo unspecified), the GI50 was 14.4 µM with UACC-257 melanoma; 0.103 µM and 0.285 µM and 0.976 µM with M14 melanoma; 10.3 nM and 14.8 nM in the experiment with MOLT-4 leukemia; 37.9 µM in the experiment with IGROV1 ovarian; 2.7 µM in the experiment on SK-OV-3 ovarian; 2.19 µM in the experiment with SNB-19 CNS. The GI50 in the experiment on DU-145 prostate was 0.536 µM; in the experiment on ACHN renal, 0.195 µM and 0.532 µM. Moreover, the TGI in the experiment on UACC-257 melanoma is over 500 µM; with NCI-H522 lung, over 500 µM; in the experiment on IGROV1 ovarian, over 500 µM; in the experiment with SK-OV-3 ovarian, over 500 µM; with SNB-19 CNS, > 100 µM and 469 µM and > 500 µM; with ACHN renal it was > 100 µM and > 35 µM and 151 µM.

As to `O=[P@@]1(c2ccccc2)O[C@H](COCc2ccccc2)[C@@H](OCc2ccccc2)[C@H](OCc2ccccc2)[C@H]1NCc1ccccc1`, the GI50 is 3.66 µM in the experiment on NCI-H23 lung; 2.22 µM in the experiment on UACC-257 melanoma; 3.21 µM with M14 melanoma; 5.75 µM in the experiment with NCI-H522 lung; 2380 nM with MOLT-4 leukemia; 4.48 µM with SK-OV-3 ovarian. Also, the figures for the GI50 in the experiment on SNB-19 CNS, with DU-145 prostate and in the experiment on ACHN renal were 3.71 µM, 4.97 µM and 3.38 µM, respectively. For the same molecule, the TGI was over 100 µM in the experiment with NCI-H23 lung; 6.76 µM in the experiment on UACC-257 melanoma; over 100 µM with M14 melanoma; over 100 µM in the experiment with NCI-H522 lung; 7.8 µM in the experiment with MOLT-4 leukemia; over 100 µM in the experiment with SK-OV-3 ovarian. In addition, the TGI in the experiment on SNB-19 CNS, in the experiment on DU-145 prostate and in the experiment on ACHN renal was over 100 µM each time.

Turning to `O=C(/C=C/C=C/c1ccccc1)c1ccccc1`, the TGI in the experiment with UACC-257 melanoma was 34.2 µM; in the experiment with M14 melanoma, 33.6 µM; in the experiment with NCI-H522 lung it was 20.2 µM; in the experiment on MOLT-4 leukemia it was 49.4 µM; in the experiment with IGROV1 ovarian, 31.2 µM; with SK-OV-3 ovarian, 70.4 µM. In addition, the TGI in the experiment with SNB-19 CNS was determined as 44.4 µM; with DU-145 prostate it was 40.1 µM.

With `COC(=O)c1ccc(-c2c(C#N)[n+](=O)c3cc(Cl)c(Cl)cc3n2[O-])cc1`, the GI50 was 11.7 µM in the experiment on NCI-H23 lung; 21.5 µM in the experiment with UACC-257 melanoma; 16.2 µM in the experiment on M14 melanoma; 4.12 µM in the experiment on NCI-H522 lung; 1180 nM in the experiment with MOLT-4 leukemia; 3.39 µM in the experiment on IGROV1 ovarian. Further, the GI50 in the experiment on SNB-19 CNS was 18.2 µM; in the experiment on DU-145 prostate, 20.2 µM; in the experiment with ACHN renal, 17.2 µM. The TGI was 29.3 µM in the experiment on NCI-H23 lung; 50.1 µM with UACC-257 melanoma; 34.1 µM in the experiment on M14 melanoma; over 100 µM with NCI-H522 lung; 2.96 µM in the experiment on MOLT-4 leukemia; over 100 µM with IGROV1 ovarian. The TGI came out at 38.9 µM in the experiment on SNB-19 CNS, 40.9 µM in the experiment with DU-145 prostate and 35.2 µM with ACHN renal.

Values taken from PubChem BioAssay (NCI).
